Test results taken from patent US20240132521A1, “COMPOUNDS AND METHODS FOR MODULATING HER2” (Iambic Therapeutics, Inc., priority 2022, published 2024).

Assays:
Type in all cases: cell-based
BaF3_HER2WT cells = BaF3_HER2WT cells (Homo sapiens, UniProt P04626); experiment: Cell growth inhibition assay (CellTiterGlo), BaF3_HER2WT; settings: cell growth inhibition, 3 days treatment, read-out: HER2 WT IC50
BaF3_HER2YVMA cells = BaF3_HER2YVMA cells (Homo sapiens, UniProt P04626, DUP772-775, cells depend on it); experiment: Cell growth inhibition assay (CellTiterGlo), BaF3_HER2YVMA; settings: cell growth inhibition, 3 days treatment, read-out: HER2 - YVMA IC50
Sequence of BaF3_HER2YVMA cells (P04626 with tags, fused parts or gaps DUP772-775): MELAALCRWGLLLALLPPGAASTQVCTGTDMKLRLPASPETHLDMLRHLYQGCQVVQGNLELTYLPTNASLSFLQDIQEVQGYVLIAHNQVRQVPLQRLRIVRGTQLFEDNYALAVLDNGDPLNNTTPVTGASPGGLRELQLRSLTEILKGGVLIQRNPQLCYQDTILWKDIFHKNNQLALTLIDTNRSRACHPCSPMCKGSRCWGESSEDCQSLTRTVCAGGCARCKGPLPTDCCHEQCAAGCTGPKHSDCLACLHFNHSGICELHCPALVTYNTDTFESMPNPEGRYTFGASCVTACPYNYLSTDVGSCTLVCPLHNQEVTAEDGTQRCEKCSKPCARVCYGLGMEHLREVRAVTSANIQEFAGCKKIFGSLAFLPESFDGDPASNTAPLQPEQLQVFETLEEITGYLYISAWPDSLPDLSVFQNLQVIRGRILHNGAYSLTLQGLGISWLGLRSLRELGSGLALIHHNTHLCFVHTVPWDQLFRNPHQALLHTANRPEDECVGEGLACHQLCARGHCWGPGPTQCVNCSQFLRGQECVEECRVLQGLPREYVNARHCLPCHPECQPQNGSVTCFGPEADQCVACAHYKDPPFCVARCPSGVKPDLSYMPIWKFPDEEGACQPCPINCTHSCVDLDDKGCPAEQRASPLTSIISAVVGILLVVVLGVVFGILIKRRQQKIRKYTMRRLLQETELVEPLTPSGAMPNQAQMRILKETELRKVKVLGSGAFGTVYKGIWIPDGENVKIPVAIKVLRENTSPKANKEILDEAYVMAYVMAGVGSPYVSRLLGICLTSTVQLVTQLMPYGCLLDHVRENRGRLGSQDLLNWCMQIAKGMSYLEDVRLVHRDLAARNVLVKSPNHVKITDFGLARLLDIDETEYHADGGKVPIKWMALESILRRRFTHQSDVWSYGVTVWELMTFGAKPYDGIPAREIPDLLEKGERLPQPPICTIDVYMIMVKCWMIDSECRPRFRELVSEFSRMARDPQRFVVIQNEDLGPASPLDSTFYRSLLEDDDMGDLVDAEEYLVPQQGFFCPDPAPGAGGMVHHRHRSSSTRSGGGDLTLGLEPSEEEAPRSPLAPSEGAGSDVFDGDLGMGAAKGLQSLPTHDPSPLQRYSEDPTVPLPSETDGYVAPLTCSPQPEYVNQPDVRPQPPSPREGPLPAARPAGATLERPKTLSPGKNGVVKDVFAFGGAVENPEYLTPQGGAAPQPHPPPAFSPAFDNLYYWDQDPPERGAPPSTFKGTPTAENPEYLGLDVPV

BaF3_EGFRWT cells = BaF3_EGFRWT cells (Homo sapiens, UniProt P00533); experiment: Cell growth inhibition assay (CellTiterGlo), BaF3_EGFRWT; settings: cell growth inhibition, 80 ng/mL EGF, 3 days treatment, read-out: EGFR WT IC50
Sequence of BaF3_EGFRWT cells (P00533 whole entry, change not shown): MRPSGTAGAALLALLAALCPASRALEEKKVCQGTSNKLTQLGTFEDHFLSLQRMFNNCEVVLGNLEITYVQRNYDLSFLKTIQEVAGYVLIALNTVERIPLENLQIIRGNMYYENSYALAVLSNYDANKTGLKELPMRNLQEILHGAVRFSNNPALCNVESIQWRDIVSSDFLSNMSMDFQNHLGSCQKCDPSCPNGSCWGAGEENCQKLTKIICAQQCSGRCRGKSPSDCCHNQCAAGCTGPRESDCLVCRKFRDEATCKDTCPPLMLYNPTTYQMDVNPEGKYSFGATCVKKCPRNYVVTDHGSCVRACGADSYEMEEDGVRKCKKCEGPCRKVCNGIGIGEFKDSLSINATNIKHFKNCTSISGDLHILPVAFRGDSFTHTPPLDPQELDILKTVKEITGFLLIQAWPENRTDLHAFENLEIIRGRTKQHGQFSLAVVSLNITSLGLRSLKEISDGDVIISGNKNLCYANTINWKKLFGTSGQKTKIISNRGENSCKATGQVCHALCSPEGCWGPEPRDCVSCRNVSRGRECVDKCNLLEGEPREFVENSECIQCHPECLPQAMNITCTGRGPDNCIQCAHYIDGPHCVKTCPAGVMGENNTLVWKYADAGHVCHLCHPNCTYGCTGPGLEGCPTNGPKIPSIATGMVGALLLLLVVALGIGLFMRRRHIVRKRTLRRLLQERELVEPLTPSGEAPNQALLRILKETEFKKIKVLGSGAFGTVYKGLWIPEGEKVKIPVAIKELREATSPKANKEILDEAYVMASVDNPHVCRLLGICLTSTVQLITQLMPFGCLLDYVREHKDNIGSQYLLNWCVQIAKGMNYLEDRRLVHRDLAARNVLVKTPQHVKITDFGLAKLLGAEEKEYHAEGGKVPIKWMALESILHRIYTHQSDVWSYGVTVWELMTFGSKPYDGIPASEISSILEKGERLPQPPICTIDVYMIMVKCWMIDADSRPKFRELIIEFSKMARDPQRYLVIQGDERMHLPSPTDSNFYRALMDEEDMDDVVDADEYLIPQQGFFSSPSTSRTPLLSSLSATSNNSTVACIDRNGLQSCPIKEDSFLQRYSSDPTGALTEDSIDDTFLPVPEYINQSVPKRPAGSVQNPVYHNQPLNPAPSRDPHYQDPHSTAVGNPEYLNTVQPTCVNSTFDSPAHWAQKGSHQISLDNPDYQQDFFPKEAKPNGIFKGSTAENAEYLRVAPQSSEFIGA

Sequence of BaF3_HER2WT cells (P04626 whole entry, change not shown): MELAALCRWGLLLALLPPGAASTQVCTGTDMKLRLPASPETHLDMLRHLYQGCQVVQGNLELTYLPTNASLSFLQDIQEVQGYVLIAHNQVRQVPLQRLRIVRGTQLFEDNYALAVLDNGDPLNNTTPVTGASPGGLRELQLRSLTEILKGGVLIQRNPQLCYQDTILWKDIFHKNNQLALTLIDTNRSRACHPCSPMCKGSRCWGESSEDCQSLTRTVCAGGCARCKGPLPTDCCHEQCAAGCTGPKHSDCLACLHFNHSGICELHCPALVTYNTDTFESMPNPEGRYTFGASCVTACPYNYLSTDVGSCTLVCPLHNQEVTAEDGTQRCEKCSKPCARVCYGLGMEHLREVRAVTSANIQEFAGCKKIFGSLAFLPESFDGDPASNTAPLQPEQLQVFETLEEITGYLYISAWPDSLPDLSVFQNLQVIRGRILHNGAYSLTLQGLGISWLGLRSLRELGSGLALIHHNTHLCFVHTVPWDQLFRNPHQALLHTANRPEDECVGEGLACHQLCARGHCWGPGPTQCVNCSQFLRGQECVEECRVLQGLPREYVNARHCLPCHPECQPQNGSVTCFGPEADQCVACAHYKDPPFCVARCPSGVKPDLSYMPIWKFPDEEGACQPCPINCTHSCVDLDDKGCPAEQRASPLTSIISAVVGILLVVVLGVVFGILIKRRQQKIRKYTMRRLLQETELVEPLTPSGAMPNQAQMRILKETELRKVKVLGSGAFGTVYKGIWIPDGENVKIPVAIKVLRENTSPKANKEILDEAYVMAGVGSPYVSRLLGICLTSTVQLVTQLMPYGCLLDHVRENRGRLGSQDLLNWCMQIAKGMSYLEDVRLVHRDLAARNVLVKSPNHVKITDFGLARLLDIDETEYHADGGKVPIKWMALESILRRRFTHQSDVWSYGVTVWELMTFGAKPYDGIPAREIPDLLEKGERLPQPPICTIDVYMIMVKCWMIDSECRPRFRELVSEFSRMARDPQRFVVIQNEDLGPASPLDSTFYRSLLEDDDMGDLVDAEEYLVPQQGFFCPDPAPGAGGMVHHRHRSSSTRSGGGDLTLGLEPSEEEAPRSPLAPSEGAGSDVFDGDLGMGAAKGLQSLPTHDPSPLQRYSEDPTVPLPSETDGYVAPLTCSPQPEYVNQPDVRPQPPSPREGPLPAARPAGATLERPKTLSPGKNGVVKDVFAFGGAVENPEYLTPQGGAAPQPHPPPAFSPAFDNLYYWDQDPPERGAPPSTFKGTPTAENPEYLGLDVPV

| GI50 (BaF3_HER2WT cells) [nM] | GI50 (BaF3_HER2YVMA cells) [nM] | GI50 (BaF3_EGFRWT cells) [nM] | Structure (SMILES) |
| --- | --- | --- | --- |
| < 200 | 500 to 1500 | 1500 to 5000 | Cc1cc(Nc2ncnn3ccc(C4CCCN(C(=O)/C=C/CN(C)C)C4)c23)ccc1Oc1ccn2ncnc2c1 (single isomer, unassigned) [Examples 107 and 108, first eluting isomer, (E)-1-(3-(4-((4-([1,2,4]triazolo[1,5-a]pyridin-7-yloxy)-3-methylphenyl)amino)pyrrolo[2,1-f][1,2,4]triazin-5-yl)piperidin-1-yl)-4-(dimethylamino)but-2-en-1-one] |
| 500 to 1500 | 1500 to 5000 | 1500 to 5000 | Cc1cc(Nc2ncnn3ccc(C4CCCN(C(=O)/C=C/CN(C)C)C4)c23)ccc1Oc1ccn2ncnc2c1 (single isomer, unassigned) [Examples 107 and 108, second eluting isomer, (E)-1-(3-(4-((4-([1,2,4]triazolo[1,5-a]pyridin-7-yloxy)-3-methylphenyl)amino)pyrrolo[2,1-f][1,2,4]triazin-5-yl)piperidin-1-yl)-4-(dimethylamino)but-2-en-1-one] |
| < 200 | < 200 | 1500 to 5000 | Cc1cc(Nc2ncnn3ccc(C4CCCN(C(=O)/C=C/CN(C)C)CC4)c23)ccc1Oc1ccn2ncnc2c1 (single isomer, unassigned) [Examples 109 and 110, first eluting isomer, (E)-1-(4-(4-((4-([1,2,4]triazolo[1,5-a]pyridin-7-yloxy)-3-methylphenyl)amino)pyrrolo[2,1-f][1,2,4]triazin-5-yl)azepan-1-yl)-4-(dimethylamino)but-2-en-1-one] |
| < 200 | < 200 | 1500 to 5000 | C=CC(=O)N1CCCC(c2ccn3ncnc(Nc4ccc(Oc5ccn6ncnc6c5)c(C)c4)c23)CC1 (single isomer, unassigned) [Examples 111 and 112, first eluting isomer, 1-(4-(4-((4-([1,2,4]triazolo[1,5-a]pyridin-7-yloxy)-3-methylphenyl)amino)pyrrolo-[2,1-f][1,2,4]triazin-5-yl)azepan-1-yl)prop-2-en-1-one] |
| < 200 | < 200 | 500 to 1500 | Cc1cc(Nc2ncnn3ccc(C4CC5CCC(C4)N5C(=O)/C=C/CN(C)C)c23)ccc1Oc1ccn2ncnc2c1 (single isomer, unassigned) [Examples 122 and 123, first eluting isomer, (E)-1-(−3-(4-((4-([1,2,4]triazolo[1,5-a]pyridin-7-yloxy)-3-methylphenyl)amino)pyrrolo[2,1-f][1,2,4]triazin-5-yl)-8-azabicyclo[3.2.1]octan-8-yl)-4-(dimethylamino)but-2-en-1-one] |
| < 200 | 200 to 500 | 1500 to 5000 | Cc1cc(Nc2ncnn3ccc(C4CC5CCC(C4)N5C(=O)/C=C/CN(C)C)c23)ccc1Oc1ccn2ncnc2c1 (single isomer, unassigned) [Examples 122 and 123, second eluting isomer, (E)-1-(3-(4-((4-([1,2,4]triazolo[1,5-a]pyridin-7-yloxy)-3-methylphenyl)amino)pyrrolo[2,1-f][1,2,4]triazin-5-yl)-8-azabicyclo[3.2.1]octan-8-yl)-4-(dimethylamino)but-2-en-1-one] |
| < 200 | 200 to 500 | 1500 to 5000 | C=C(CN(C)C)C(=O)N1C2CCC1CC(c1ccn3ncnc(Nc4ccc(Oc5ccn6ncnc6c5)c(C)c4)c13)C2 (single isomer, unassigned) [Examples 126 and 127, first eluting isomer, 1-(3-(4-((4-([1,2,4]triazolo[1,5-a]pyridin-7-yloxy)-3-methylphenyl)amino)pyrrolo[2,1-f][1,2,4]triazin-5-yl)-8-azabicyclo[3.2.1]octan-8-yl)-2-((dimethylamino)methyl)prop-2-en-1-one] |
| 200 to 500 | 500 to 1500 | 1500 to 5000 | C=C(CN(C)C)C(=O)N1C2CCC1CC(c1ccn3ncnc(Nc4ccc(Oc5ccn6ncnc6c5)c(C)c4)c13)C2 (single isomer, unassigned) [Examples 126 and 127, second eluting isomer, 1-(3-(4-((4-([1,2,4]triazolo[1,5-a]pyridin-7-yloxy)-3-methylphenyl)amino)pyrrolo[2,1-f][1,2,4]triazin-5-yl)-8-azabicyclo[3.2.1]octan-8-yl)-2-((dimethylamino)methyl)prop-2-en-1-one] |
| < 200 | < 200 | 1500 to 5000 | C=C(CN(C)C)C(=O)N1CC2CCC1CC2c1ccn2ncnc(Nc3ccc(Oc4ccn5ncnc5c4)c(C)c3)c12 (single isomer, unassigned) [Examples 135 and 136, first eluting isomer, 1-(5-(4-((4-([1,2,4]triazolo[1,5-a]pyridin-7-yloxy)-3-methylphenyl)amino)pyrrolo[2,1-f][1,2,4]triazin-5-yl)-2-azabicyclo[2.2.2]octan-2-yl)-2-((dimethylamino)methyl)prop-2-en-1-one] |
| < 200 | 200 to 500 | < 200 | C=C(CN(C)C)C(=O)N1CC2CCC1CC2c1ccn2ncnc(Nc3ccc(Oc4ccn5ncnc5c4)c(C)c3)c12 (single isomer, unassigned) [Examples 135 and 136, second eluting isomer, 1-(5-(4-((4-([1,2,4]triazolo[1,5-a]pyridin-7-yloxy)-3-methylphenyl)amino)pyrrolo[2,1-f][1,2,4]triazin-5-yl)-2-azabicyclo[2.2.2]octan-2-yl)-2-((dimethylamino)methyl)prop-2-en-1-one] |
| 500 to 1500 | 1500 to 5000 | 1500 to 5000 | Cc1cc(Nc2ncnn3ccc(C4CC5CCC4CN5C(=O)/C=C/CN(C)C)c23)ccc1Oc1ccn2ncnc2c1 (single isomer, unassigned) [Examples 137 and 138, second eluting isomer, (E)-1-(5-(4-((4-([1,2,4]triazolo[1,5-a]pyridin-7-yloxy)-3-methylphenyl)amino)pyrrolo[2,1-f][1,2,4]triazin-5-yl)-2-azabicyclo[2.2.2]octan-2-yl)-4-(dimethylamino)but-2-en-1-one] |
| < 200 | < 200 | 1500 to 5000 | C=CC(=O)N1CC2CCC1CC2c1ccn2ncnc(Nc3ccc(Oc4ccn5ncnc5c4)c(C)c3)c12 (single isomer, unassigned) [Examples 139 and 140, first eluting isomer, 1-(5-(4-((4-([1,2,4]triazolo[1,5-a]pyridin-7-yloxy)-3-methylphenyl)amino)pyrrolo[2,1-f][1,2,4]triazin-5-yl)-2-azabicyclo[2.2.2]octan-2-yl)prop-2-en-1-one] |
| 500 to 1500 | 1500 to 5000 | 1500 to 5000 | C=CC(=O)N1CC2CCC1CC2c1ccn2ncnc(Nc3ccc(Oc4ccn5ncnc5c4)c(C)c3)c12 (single isomer, unassigned) [Examples 139 and 140, second eluting isomer, 1-(5-(4-((4-([1,2,4]triazolo[1,5-a]pyridin-7-yloxy)-3-methylphenyl)amino)pyrrolo[2,1-f][1,2,4]triazin-5-yl)-2-azabicyclo[2.2.2]octan-2-yl)prop-2-en-1-one] |
| < 200 | 500 to 1500 | 1500 to 5000 | C=C(CN(C)C)C(=O)N1CCCC(c2ccn3ncnc(Nc4ccc(Oc5ccn6ncnc6c5)c(C)c4)c23)CC1 (single isomer, unassigned) [Examples 143 and 144, first eluting isomer, 1-(4-(4-((4-([1,2,4]triazolo[1,5-a]pyridin-7-yloxy)-3-methylphenyl)amino)pyrrolo[2,1-f][1,2,4]triazin-5-yl)azepan-1-yl)-2-((dimethylamino)methyl)prop-2-en-1-one] |
| < 200 | < 200 | 1500 to 5000 | C=C(CN(C)C)C(=O)N1CCCC(c2ccn3ncnc(Nc4ccc(Oc5ccn6ncnc6c5)c(C)c4)c23)CC1 (single isomer, unassigned) [Examples 143 and 144, second eluting isomer, 1-(4-(4-((4-([1,2,4]triazolo[1,5-a]pyridin-7-yloxy)-3-methylphenyl)amino)pyrrolo[2,1-f][1,2,4]triazin-5-yl)azepan-1-yl)-2-((dimethylamino)methyl)prop-2-en-1-one] |
| < 200 | 200 to 500 | 1500 to 5000 | Cc1cc(Nc2ncnn3ccc(C4CCCN(C(=O)C(F)Cl)CC4)c23)ccc1Oc1ccn2ncnc2c1 (single isomer, unassigned) [Examples 145, 146, 147 and 148, first eluting isomer, 1-(4-(4-((4-([1,2,4]triazolo[1,5-a]pyridin-7-yloxy)-3-methylphenyl)amino)pyrrolo[2,1-f][1,2,4]triazin-5-yl)azepan-1-yl)-2-chloro-2-fluoroethan-1-one] |
| 200 to 500 | 500 to 1500 | 1500 to 5000 | Cc1cc(Nc2ncnn3ccc([C@@H]4CCCN(C(=O)[C@H](F)Cl)CC4)c23)ccc1Oc1ccn2ncnc2c1 (single isomer, unassigned) [Examples 145, 146, 147 and 148, fourth eluting isomer] |

| Structure (SMILES) | GI50 (BaF3_HER2WT cells) [nM] | GI50 (BaF3_HER2YVMA cells) [nM] | GI50 (BaF3_EGFRWT cells) [nM] |
| --- | --- | --- | --- |
| C=CC(=O)N1C2CCC1CC(c1ccn3ncnc(Nc4ccc(Oc5ccn6ncnc6c5)c(C)c4)c13)C2 (single isomer, unassigned) [Examples 124 and 125, first eluting isomer, 1-(3-(4-((4-([1,2,4]triazolo[1,5-a]pyridin-7-yloxy)-3-methylphenyl)amino)pyrrolo[2,1-f][1,2,4]triazin-5-yl)-8-azabicyclo[3.2.1]octan-8-yl)prop-2-en-1-one] | < 200 | < 200 | < 200 |
